Results: patent US11603377B2, “MTORC1 modulators and uses thereof” (Aeovian Pharmaceuticals, Inc., priority 2020, dated 2023)

What was measured:
[1] = target: FKBP51 / FRB ternary complex (Homo sapiens (Human), UniProt P42345+Q13451); assay: SPR assay to characterize ternary complex formation with FKBP51 (FRB binding to rapalog-saturated FKBP51); settings: FRB dilutions with 100 nM rapalog on immobilized FKBP51
Description: Example 31: SPR Assay to Characterize Ternary Complex Formation with FKBP51
(§1) Biotinylated avi-FKBP51 was immobilized on a streptavidin chip (Cytiva Series S SA) using a Biacore 8K or 8 k+ (Cytiva). To achieve an immobilization level of 200 RU, 0.6 μg/ml biotinylated avi-FKBP51 were injected for 150 sec at a flow rate of 10 μl/min. Serial dilution of FRB was prepared (12 concentrations, 3-fold dilutions, 0.00011-20 μM) and supplemented with 100 nM of rapalog. A-B-A injection mode was used to ensure saturation immobilized […] with respective rapalog. 100 nM solution of the respective rapalog was injected before FRB injection for 120 sec and during dissociation for 420 sec. The FRB dilutions were then injected 120 seconds contact time with increasing concentrations. […] 50 mM HEPES pH 7.5, 150 mM NaCl, 2 mM MgCl2, 1 mM DTT, 0.05% Tween-20, 1% DMSO was used as running buffer at a flow rate of 30 μl/min. The multi-cycle kinetics data were fit to a 1:1 binding model to measure the association rate ka (1/Ms), the dissociation rate kd (1/s) and the affinity Kd (M). In case of fast association and dissociation, steady state affinity analysis following the law of mass action was used to determine the affinity Kd (M).

FKBP51 = FKBP51 (Homo sapiens (Human), UniProt Q13451); assay: SPR assay to determine binding affinity to FKBP51 (direct binding); settings: immobilized biotinylated avi-FKBP51
FKBP51, sequence (Q13451 whole entry): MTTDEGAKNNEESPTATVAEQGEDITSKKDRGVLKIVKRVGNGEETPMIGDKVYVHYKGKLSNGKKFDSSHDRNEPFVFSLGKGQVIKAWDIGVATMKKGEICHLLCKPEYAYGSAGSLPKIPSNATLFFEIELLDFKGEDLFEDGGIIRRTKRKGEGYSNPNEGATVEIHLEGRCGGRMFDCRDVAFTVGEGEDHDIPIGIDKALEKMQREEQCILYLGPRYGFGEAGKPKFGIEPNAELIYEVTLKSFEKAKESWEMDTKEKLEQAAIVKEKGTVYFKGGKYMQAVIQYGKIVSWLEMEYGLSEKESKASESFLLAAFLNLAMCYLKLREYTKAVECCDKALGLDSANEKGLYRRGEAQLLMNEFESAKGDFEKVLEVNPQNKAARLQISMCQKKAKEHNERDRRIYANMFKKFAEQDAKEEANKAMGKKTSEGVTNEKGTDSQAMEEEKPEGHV
Description: Example 29: SPR Assay to Determine Binding Affinity to FKBP51
Biotinylated avi-FKBP51 was immobilized on a streptavidin chip (Cytiva Series S SA) using a Biacore 8K or 8 k+ (Cytiva). To achieve an immobilization level of 2000 RU, 3 μg/ml biotinylated avi-FKBP51 were injected for 360 sec at a flow rate of 10 μl/min. Rapalogs were diluted in DMSO to 100× working concentration. Each Rapalog was 100-fold diluted in 50 mM HEPES pH 7.5, 150 mM NaCl, 2 mM MgCl2, 1 mM DTT, 0.05% Tween-20 and a serial dilution prepared (8 concentrations, 3-fold dilutions, 0.5-1000 nM). […] The compound dilutions were then injected at 100 uL/min for 120 seconds contact time and with 3600 seconds dissociation time with increasing concentrations. 50 mM HEPES pH 7.5, 150 mM NaCl, 2 mM MgCl2, 1 mM DTT, 0.05% Tween-20, 1% DMSO was used as running buffer. Multi-cycle kinetics data were fit to a 1:1 binding model to measure the association rate ka (1/Ms), the dissociation rate kd (1/s) and the affinity Kd (M).

mTORC1 = mTORC1 (Homo sapiens (Human), UniProt P42345+P62942); assay: mTORC1 inhibition, AlphaLISA of Phospho-p70 S6 kinase (p70S6K pT389) in PC-3 cells; format: cell-based; settings: inhibition of p70S6K pT389 levels
mTORC2 = mTORC2 (Homo sapiens (Human), UniProt P42345+P62942); assay: mTORC2 inhibition, AlphaLISA of Phospho-AKT (pAKT pS473) in PC3 cells; format: cell-based
Description: Example 32: mTORC1 Inhibition, mTORC2 Inhibition, Cell Lysis, AlphaLISA Experiments, and Data Analysis
mTORC2 inhibition was determined via analysis of phosphorylation level of Phospho-AKT (pAKT pS473) with the corresponding AlphaLISA kit (PerkinElmer, Alpha SF Ultra™ Multiplex p-AKT1/2/3(Ser473)/Total AKT1). PC3 cells were plated on 96 well plates in assay medium (DMEM: Ham's F12, basic (CLS Cell Lines Service GmbH, Cat #820400a), supplemented with additional 10% FBS at 1.20E+06 cells/mL and incubated over-night at 37° C., 5% CO2. On the following day, cells were treated with assay medium (10% FBS) containing increasing compound concentrations (12 points at 3-fold dilutions) and incubated for 6 hours at 37° C., 5% CO2. Thereafter, medium was aspirated and cells were rinsed with PBS. In the following, cells were treated with compound dilutions in starvation medium (DMEM: Ham's F12, basic; without FBS) for further 18 h at 37° C., 5% CO2. Then, immediately prior to cell lysis, cells were treated with 12% FBS for 15 min.
After performing experiments according to mTORC1 and mTORC2 protocols, cells were harvested in lysis buffer supplied with the AlphaLISA kits, additionally enriched with Roche cOmplete™ Protease Inhibitor Cocktail (Cat #CO-RO). Thus, cells were lysed using 50 μL of the lysis buffer and incubated for 60 min at 4° C. while shaking. After centrifugation at 4000 rpm for 5 min, experiments were performed according to the AlphaLISA manufacturer's protocol.
Ten microliters of cell lysates were mixed with the acceptor mix. After incubation for 2 h at room temperature, the donor mix was added. After additional incubation at room temperature for 2 hours, AlphaLISA signal was read on PHERAstar® FSX (BMG Labtech) with AlphaPLEX module.
EC50 values were calculated by ExcelFit standard algorithm.

FKBP12 = FKBP12 (Homo sapiens (Human), UniProt P62942); assay: SPR assay to determine binding affinity to FKBP12 (direct binding); settings: immobilized biotinylated avi-FKBP12
FKBP12, sequence (P62942 whole entry): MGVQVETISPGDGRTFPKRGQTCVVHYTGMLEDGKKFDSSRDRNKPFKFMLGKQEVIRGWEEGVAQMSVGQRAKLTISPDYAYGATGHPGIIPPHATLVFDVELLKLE
Description: SPR Assay to Determine Binding Affinity to FKBP12.
Biotinylated avi-FKBP12 was immobilized on a streptavidin chip (Cytiva Series S SA) using a Biacore 8K or 8 k+ (Cytiva). To achieve an immobilization level of 1000 RU, 2 μg/ml biotinylated avi-FKBP12 were injected for 100 sec at a flow rate of 10 μl/min. Rapalogs were diluted in DMSO to 100× working concentration. Each Rapalog was 100-fold diluted in 50 mM HEPES pH 7.5, 150 mM NaCl, 2 mM MgCl2, 1 mM DTT, 0.05% Tween-20 and a serial dilution prepared (9 concentrations, 3-fold dilutions, 0.08-500 nM). […] The compound dilutions were then injected at 100 uL/min for 120 seconds contact time in sequence with increasing concentrations. Dissociation was monitored for 3600 seconds. 50 mM HEPES pH 7.5, 150 mM NaCl, 2 mM MgCl2, 1 mM DTT, 0.05% Tween-20, 1% DMSO was used as running buffer. The single-cycle kinetics data were fit to a 1:1 binding model to measure the association rate ka (1/Ms), the dissociation rate kd (1/s) and the affinity Kd (M).

[2] = target: FKBP12 / FRB ternary complex (Homo sapiens (Human), UniProt P42345+P62942); assay: SPR assay to characterize ternary complex formation with FKBP12 (FRB binding to rapalog-saturated FKBP12); settings: FRB dilutions with 100 nM rapalog on immobilized FKBP12
Description: Example 30: SPR Assay to Characterize Ternary Complex Formation with FKBP12
as §1, with “Biotinylated avi-FKBP12” for “Biotinylated avi-FKBP51”, “of 100” for “of 200”, “RU, 0.3” for “RU, 0.6”, “biotinylated avi-FKBP12” for “biotinylated avi-FKBP51”, “for 80” for “for 150”

Row | Compound | Kd [1] | Kd (FKBP51) | IC50 (mTORC1) | Kd (FKBP12) | Kd [2] | mTORC2 % inhibition at 1 uM (mTORC2)
1 | CO[C@@H]1C[C@H](C[C@@H](C)[C@@H]2CC(=O)[C@H](C)/C=C(\C)[C@@H](O)[C@@H](OC)C(=O)[C@H](C)C[C@H](C)/C=C/C=C/C=C(\C)[C@H](NS(=O)(=O)CC3CCCCC3)C[C@@H]3CC[C@@H](C)[C@@](O)(O3)C(=O)C(=O)N3CCCC[C@H]3C(=O)O2)CC[C@H]1O [Compound 19] | > 800 nM | > 100 nM | > 0.8 nM | 0.3 to 1 nM | > 800 nM | B (B>20% and less than 40% inhibition at 1 uM)
2 | CO[C@@H]1C[C@H](C[C@@H](C)[C@@H]2CC(=O)[C@H](C)/C=C(\C)[C@@H](O)[C@@H](OC)C(=O)[C@H](C)C[C@H](C)/C=C/C=C/C=C(\C)[C@@H](NS(=O)(=O)CC3CCCCC3)C[C@@H]3CC[C@@H](C)[C@@](O)(O3)C(=O)C(=O)N3CCCC[C@H]3C(=O)O2)CC[C@H]1O [Compound 20] | > 800 nM | > 100 nM | 0.1 to 0.8 nM | < 0.3 nM | 300 to 800 nM | B (B>20% and less than 40% inhibition at 1 uM)
3 | CO[C@@H]1C[C@H](C[C@@H](C)[C@@H]2CC(=O)[C@H](C)/C=C(\C)[C@@H](O)[C@@H](OC)C(=O)[C@H](C)C[C@H](C)/C=C/C=C/C=C(\C)[C@H](NS(=O)(=O)CC3CCCC3)C[C@@H]3CC[C@@H](C)[C@@](O)(O3)C(=O)C(=O)N3CCCC[C@H]3C(=O)O2)CC[C@H]1O [Compound 22] | > 800 nM | > 100 nM | 0.1 to 0.8 nM | < 0.3 nM | > 800 nM | A (A ≤20% inhibition at 1 micro Molar (uM))
4 | CO[C@@H]1C[C@H](C[C@@H](C)[C@@H]2CC(=O)[C@H](C)/C=C(\C)[C@@H](O)[C@@H](OC)C(=O)[C@H](C)C[C@H](C)/C=C/C=C/C=C(\C)[C@@H](NS(=O)(=O)CC3CCCC3)C[C@@H]3CC[C@@H](C)[C@@](O)(O3)C(=O)C(=O)N3CCCC[C@H]3C(=O)O2)CC[C@H]1O [Compound 23] | > 800 nM | 10 to 100 nM | > 0.8 nM | < 0.3 nM | > 800 nM | A (A ≤20% inhibition at 1 micro Molar (uM))

Now from value to molecule, other results behind:

Row | Kd [1] | Kd (FKBP51) | IC50 (mTORC1) | Kd (FKBP12) | Kd [2] | Compound | mTORC2 % inhibition at 1 uM (mTORC2)
5 | < 300 nM | < 10 nM | < 0.1 nM | < 0.3 nM | < 300 nM | COCCOCCS(=O)(=O)N[C@H]1C[C@@H]2CC[C@@H](C)[C@@](O)(O2)C(=O)C(=O)N2CCCC[C@H]2C(=O)O[C@H]([C@H](C)C[C@@H]2CC[C@@H](O)[C@H](OC)C2)CC(=O)[C@H](C)/C=C(\C)[C@@H](O)[C@@H](OC)C(=O)[C@H](C)C[C@H](C)/C=C/C=C/C=C/1C [Compound 9] | C (C≥40% and less than 60% inhibition at 1 uM)
6 | 300 to 800 nM | 10 to 100 nM | 0.1 to 0.8 nM | 0.3 to 1 nM | 300 to 800 nM | COC1C(=O)C(C)CC/C=C/C=C/C=C(\C)[C@H](NS(=O)(=O)CCO)C[C@H]2CC[C@H](C)[C@](O)(O2)C(=O)C(=O)N(C)C(C)C(=O)OC([C@H](C)C[C@@H]2CC[C@@H](OC3CC3)[C@H](OC)C2)CC(=O)C(C)/C=C(\C)C1O (stereo partly drawn) [Compound 10] | A (A ≤20% inhibition at 1 micro Molar (uM))
7 | 300 to 800 nM | 10 to 100 nM | 0.1 to 0.8 nM | 0.3 to 1 nM | 300 to 800 nM | COC1C(=O)C(C)CC/C=C/C=C/C=C(\C)[C@@H](NS(=O)(=O)CCO)C[C@H]2CC[C@H](C)[C@](O)(O2)C(=O)C(=O)N(C)C(C)C(=O)OC([C@H](C)C[C@@H]2CC[C@@H](OC3CC3)[C@H](OC)C2)CC(=O)C(C)/C=C(\C)C1O (stereo partly drawn) [Compound 11] | A (A ≤20% inhibition at 1 micro Molar (uM))
8 | 300 to 800 nM | 10 to 100 nM | > 0.8 nM | 0.3 to 1 nM | 300 to 800 nM | CCOC(=O)CS(=O)(=O)NC1C[C@H]2CC[C@H](C)[C@](O)(O2)C(=O)C(=O)N(C)C(C)C(=O)OC([C@H](C)C[C@@H]2CC[C@@H](OC3CC3)[C@H](OC)C2)CC(=O)C(C)/C=C(\C)C(O)C(OC)C(=O)C(C)CC/C=C/C=C/C=C/1C (stereo partly drawn) [Compound 12] | A (A ≤20% inhibition at 1 micro Molar (uM))
9 | 300 to 800 nM | 10 to 100 nM | 0.1 to 0.8 nM | 0.3 to 1 nM | 300 to 800 nM | COC1C(=O)C(C)CC/C=C/C=C/C=C(\C)C(NS(=O)(=O)CCCS(=O)(=O)O)C[C@H]2CC[C@H](C)[C@](O)(O2)C(=O)C(=O)N(C)C(C)C(=O)OC([C@H](C)C[C@@H]2CC[C@@H](OC3CC3)[C@H](OC)C2)CC(=O)C(C)/C=C(\C)C1O (stereo partly drawn) [Compound 18] | A (A ≤20% inhibition at 1 micro Molar (uM))
